Source: article doi:10.1101/2025.04.16.649181, “Design of peptide-based PAC1 antagonists combining molecular dynamics simulations and a biologically relevant cell-based assay” (bioRxiv, 2025)
No end group written: not given here.

What was measured:
human PAC1hop (hPAC1) = experiment: cAMP biosensor (CBS) assay, agonist responses in HEK293_CBS_hPAC1; assay type: cell-based; conditions: HEK293_CBS_hPAC1, IBMX pretreated, luminescence
Text: (§1) A single clone of the SH-SY5Y cell line stably expressing a cAMP biosensor (SY5Y_CBS) was generated as previously described for HEK293_CBS and NS-1_CBS cells, using the retroviral vector pLHCX containing the cAMP biosensor and a hygromycin resistance gene. A HEK293_CBS_hPAC1 cell clone was generated by transducing HEK293_CBS cells with the lentiviral vector pLX304 (GeneCopoeia, Rockville, MD) encoding the human PAC1hop (PAC1; GenBank accession no. BC143679) and a blasticidin resistance gene . Following transduction, cells were selected with the appropriate antibiotics (hygromycin or blasticidin) for 2 weeks. Single-cell clones were subsequently isolated by limiting dilution and assessed for PACAP-induced cAMP production using concentration-response assays.
(§2) The cyclic AMP biosensor (CBS) assay was performed using Gibco CO2-independent medium (ThermoFisher, catalog #18045-088). HEK293_CBS_hPAC1 or SY5Y_CBS cells were seeded in 96-well black/clear-bottom plates (MidSci, Fenton, MO) at a density of 6,000 cells per well and incubated overnight. The following day, the medium in each well was aspirated and replaced with fresh medium containing 1.5 mg/mL D-luciferin potassium salt substrate (Gold Biotechnology, St. Louis, MO) and 500 μM isobutyl-1-methylxanthine (IBMX), followed by incubation at 37 °C for 1 hour. Cells were then pre-treated with antagonists for 10 minutes before the addition of agonists (PACAP or forskolin). Plates were incubated at 37 °C for 1 hour, then brought to room temperature and equilibrated for 30 minutes. Luminescence was measured using a GloMax plate reader (Promega, Madison, WI).
GraphPad Prism ver. 9.0 or 10.0 (GraphPad Software Inc, Boston, MA) was used for data analysis. Concentration response curves were created using a four parameter logistic regression model. EC80 and IC50 parameters were obtained using non-linear regression curve fitting tools. EC80 was calculated as the effective concentration of the agonist required to produce 80% of the maximal response. […]

[1] = target: PAC1 endogenously expressed in SH-SY5Y cells (human (endogenous in SH-SY5Y)) (UniProt P41586)
[2] = target: T1, PAC1 (endogenous, mainly PAC1null, SH-SY5Y) (Homo sapiens, UniProt P41586); experiment: CBS assay, antagonism of P38-induced cAMP in SY5Y_CBS cells; assay type: cell-based
T1 construct: Neuroblastoma SH-SY5Y cells endogenously xpressing hPAC1 and engineered to express CBS; endogenous in cells
T1 sequence (P41586 21-468): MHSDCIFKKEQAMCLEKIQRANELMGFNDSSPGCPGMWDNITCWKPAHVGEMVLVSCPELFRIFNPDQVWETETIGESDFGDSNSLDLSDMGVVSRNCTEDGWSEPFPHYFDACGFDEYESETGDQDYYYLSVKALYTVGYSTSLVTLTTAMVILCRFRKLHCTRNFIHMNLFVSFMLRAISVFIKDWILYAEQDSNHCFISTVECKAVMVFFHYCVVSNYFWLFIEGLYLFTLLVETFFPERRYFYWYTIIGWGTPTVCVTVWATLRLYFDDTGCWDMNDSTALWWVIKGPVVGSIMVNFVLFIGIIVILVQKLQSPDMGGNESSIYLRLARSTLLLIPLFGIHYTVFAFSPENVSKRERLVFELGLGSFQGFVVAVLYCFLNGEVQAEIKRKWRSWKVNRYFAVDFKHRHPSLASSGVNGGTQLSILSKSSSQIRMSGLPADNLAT
Text: as §1, §2
(§3) GraphPad Prism ver. 9.0 or 10.0 (GraphPad Software Inc, Boston, MA) was used for data analysis. Concentration response curves were created using a four parameter logistic regression model. EC80 and IC50 parameters were obtained using non-linear regression curve fitting tools. EC80 was calculated as the effective concentration of the agonist required to produce 80% of the maximal response. IC50 was calculated as the concentration of the antagonist that produced 50% of the response induced by an agonist (either PACAP or forskolin) in the absence of the antagonist. Seven or eight different concentrations and three technical replicates per concentration were used for curve fitting. All data are presented as mean ± standard error of the mean (SEM).

[3] = target: T1, PAC1 (endogenous, mainly PAC1null, SH-SY5Y); experiment: CBS assay, antagonism of P27-induced cAMP in SY5Y_CBS cells; assay type: cell-based
Text: as §1, §2
For the high-throughput CBS screening assays, cells were plated at 2,000 (HEK293_CBS_hPAC1) or 3,000 (SY5Y_CBS) cells per well in […] of Gibco CO2-independent medium, in white 1,536-well tissue culture treated plates. After overnight incubation at 37 °C and 5% CO2, […] of luciferin/IBMX solution was added to the wells (final concentrations of 500 μM each) and plates were incubated at 37 °C for 1 hour. SMOLs (22.5 nL) were transferred to the assay plate, using a pintool device (HEK293 screen) or an ECHO acoustic liquid handler (Beckman Coulter, Brea, CA, SY5Y screen), to final concentrations (4 concentrations per compound) between 0.5 and 30 μM and cells were incubated at 37 °C for 1 hour (HEK293 screen) or 10 minutes (SY5Y screen). […] For forskolin counterscreening in SY5Y cells, forskolin instead of peptide was dispensed to the plate at a final concentration of 5 μM.
as §3

[4] = target: T1, PAC1 (endogenous, mainly PAC1null, SH-SY5Y); experiment: Direct cAMP ELISA, antagonism of P38 in SY5Y_CBS cells; assay type: cell-based
Description: Direct cAMP determinations were made using the DetectX® Direct Cyclic AMP Enzyme Immunoassay Kit (Arbor Assays, Ann Arbor, MI). SY5Y_CBS cells (200,000 cells per well) or HEK293_CBS cells (10,000 cells per well) were seeded into 96-well plates one day prior to the assay. These cell densities were optimized to ensure agonist responses fell within the linear range of the cAMP standard curve (0.16-10 pmol/mL cAMP). On the day of the assay, the medium was removed and replaced with fresh medium containing 500 μM IBMX. After a 20-minute incubation at 37 °C, antagonists were added and incubated for 10 minutes at 37 °C, followed by the addition of agonists for 30 minutes at 37 °C. Following the final incubation, the medium was aspirated, and cells were lysed with 200 μL of lysis buffer (provided in the kit) for 10 minutes at room temperature. Samples were then snap-frozen and stored at −80 °C overnight and thawed the next day to ensure complete cell lysis. The assay was completed by sequentially adding the cAMP peroxidase conjugate, anti-cAMP sheep antibody, substrate, and stop solution, according to the manufacturer’s instructions. Optical density was measured at 450 nm using a microplate spectrophotometer (Molecular Devices, San Jose, CA). Standard curves and data analysis were performed using GraphPad Prism with a sigmoidal four-parameter nonlinear regression model. Experiments conducted on different days with independently plated and assayed cells were considered biological replicates. Each experiment included three technical replicates.
as §3

PAC1 [5] = conditions: ref 15 (maxadilan); cited from earlier work
Text: Similarities include initial binding events between the C-terminal domain of the peptide with the extracellular domain (ECD) followed by insertion of the N-terminus of the peptide into the core of the receptor to enable activation, but with differences in binding poses in the C-terminus explaining in part the ligand selectivity of each receptor [13]. Empirica ...

[6] = target: PAC1 endogenously expressed in SH-SY5Y cells (human (endogenous in SH-SY5Y)) (UniProt P41586); remark: listed apart in the source
HEK293_CBS cells = experiment: cAMP biosensor (CBS) assay, agonist responses in parental HEK293_CBS; assay type: cell-based
[7] = target: T1, PAC1 (endogenous, mainly PAC1null, SH-SY5Y); experiment: CBS assay, agonist potency in SY5Y_CBS cells; assay type: cell-based
Description: A single clone of the SH-SY5Y cell line stably expressing a cAMP biosensor (SY5Y_CBS) was generated as previously described for HEK293_CBS and NS-1_CBS cells [30], using the retroviral vector pLHCX containing the cAMP biosensor and a hygromycin resistance gene. […] Following transduction, cells were selected with the appropriate antibiotics (hygromycin or blasticidin) for 2 weeks. Single-cell clones were subsequently isolated by limiting dilution and assessed for PACAP-induced cAMP production using concentration-response assays.

PAC1 [8] = experiment: CBS assay in NS-1 cells, endogenous PAC1; assay type: cell-based, rat; conditions: NS-1 cells expressing CBS, n = 3
Description: Cell culture reagents were purchased from ThermoFisher Scientific (Waltham, MA) unless otherwise noted. Neuroscreen-1 (NS-1) cells (Cellomics, Halethorpe, MD) were grown on flasks or plates coated with Collagen I (rat tail) as described previously. NS-1 cells were cultured in RPMI-1640 media supplemented with 10% horse serum and 5% heat-inactivated Fetal Bovine Serum (Hyclone, Logan, UT). HEK293 and SH-SY5Y cells were purchased from ATCC (Gaithersburg, MD) and cultured with DMEM medium with 10% FBS. All cell culture medium were supplemented with 2 mM glutamine, 100 U/ml penicillin, and 100 μg/ml streptomycin.
A single clone of the SH-SY5Y cell line stably expressing a cAMP biosensor (SY5Y_CBS) was generated as previously described for HEK293_CBS and NS-1_CBS cells, using the retroviral vector pLHCX containing the cAMP biosensor and a hygromycin resistance gene. […] Single-cell clones were subsequently isolated by limiting dilution and assessed for PACAP-induced cAMP production using concentration-response assays.
The cyclic AMP biosensor (CBS) assay was performed using Gibco CO2-independent medium (ThermoFisher, catalog #18045-088). […] Luminescence was measured using a GloMax plate reader (Promega, Madison, WI).
GraphPad Prism ver. […] EC80 was calculated as the effective concentration of the agonist required to produce 80% of the maximal response. […]

[9] = 1 nM P38, average of two independent experiments, read-out: IC50 Average in ELISA assay
[10] = 1 nM P38, range of two independent experiments, read-out: IC50 Range in ELISA assay
[11] = 0.2 nM P38 (EC80), SY5Y_CBS, mean ± SEM, three independent experiments, Figure 11B, read-out: IC50 of P6-38 C-terminal mutants in CBS assay

P27: PACAP 1-27, endogenous PAC1 agonist (HSDGIFTDSYSRYRKQMAVKKYLAAVL; ends and bridges not checked)
agonist response (cAMP) (human PAC1hop (hPAC1)): highly responsive to P38 and P27 with similar potency and efficacy

PACAP(6-38) (peptide)
IC50 of inhibition of P27-induced cAMP elevation (CBS assay) in SY5Y CBS cells; pair that is blocked: m2 + m18 [1]: 20 nM | IC50 of inhibition of P38-induced cAMP elevation (CBS assay) in SY5Y CBS cells; pair that is blocked: m1 + m18 [1]: 100 nM

FTDSYSRYRKQMAVKKYLAAVL-NH2 [P6-27]
IC50 ([2]; 0.2 nM P38 (EC80), SY5Y_CBS, three independent experiments, Figure 11B, read-out: IC50 of P6-38 C-terminal mutants in CBS assay): > 1000 nM | IC50 ([3]; IC50 against P27 (Figure 8), 0.2 nM P27, SY5Y_CBS, 3 independent experiments): ~100 nM | IC50 ([3]; IC50 against P27, 0.2 nM P27 (EC80), mean ± SEM, n = 3, Figure 7C): 200 ± 55 nM | IC50 [4, 9]: 3310 nM | IC50 [4, 10]: 370 to 6250 nM

pituitary adenylate cyclase-activating polypeptide (PACAP) 1-27 (from UniProt P18509 132-158)
EC80 of cAMP elevation (CBS assay) in SY5Y CBS cells [1]: 0.2 nM

CSCC[C@H](NC(=O)[C@H](CCC(N)=O)NC(=O)[C@H](CCCCN)NC(=O)[C@H](CCCNC(=N)N)NC(=O)[C@H](Cc1ccc(O)cc1)NC(=O)[C@H](CCCNC(=N)N)NC(=O)[C@H](CO)NC(=O)[C@H](Cc1ccc(O)cc1)NC(=O)[C@H](CO)NC(=O)[C@H](CC(=O)O)NC(=O)[C@@H](NC(=O)[C@@H](N)Cc1ccccc1)[C@@H](C)O)C(=O)N[C@@H](C)C(=O)N[C@H](C(=O)N[C@@H](CCCCN)C(=O)N[C@@H](CCCCN)C(=O)N[C@@H](Cc1ccc(O)cc1)C(=O)N[C@@H](CC(C)C)C(=O)N[C@@H](C)C(=O)N[C@@H](C)C(=O)N[C@H](C(=O)N[C@@H](CC(C)C)C(=O)NCC(=O)N[C@@H](CCCCN)C(=O)N[C@@H](CCCNC(=N)N)C(=O)N[C@@H](Cc1ccc(O)cc1)C(=O)N[C@@H](CCCCN)C(=O)N[C@@H](CCC(N)=O)C(=O)N[C@@H](CCCNC(=N)N)C(=O)N[C@H](C(=O)N[C@@H](CCCCN)C(=O)N[C@@H](CC(N)=O)C(=O)N[C@@H](CCCCN)C(N)=O)C(C)C)C(C)C)C(C)C [P6-38, reference compound]
IC50 [2, 11]: 117 ± 19 nM | IC50 ([2]; IC50 against P38 (Figure 9C), 0.2 nM P38, CBS assay, mean ± SEM, three independent experiments): 52 ± 13 nM | IC50 ([2]; IC50 against P38 (estimated from Figure 5B), 0.2 nM P38 (EC80), SY5Y_CBS, CBS assay): ~100 nM | IC50 ([3]; IC50 against P27 (estimated from Figure 5B), 0.2 nM P27 (EC80), SY5Y_CBS): ~20 nM | IC50 [4, 9]: 114 nM | IC50 [4, 10]: 86 to 142 nM

maxadilan
activity at PAC1 (PAC1 [5]): agonist

PACAP(6-27) (peptide)
IC50 of inhibition of P27-stimulated (0.2 nM) cAMP elevation (CBS assay) in SY5Y CBS cells; pair that is blocked: m2 + m18 [6]: 100 nM | percent to which P38-induced (0.2 nM) cAMP elevation is blocked (CBS assay) in SY5Y CBS cells, antagonist up to 10 μM; pair that is blocked: m1 + m18 [6]: 50%

FTDSYSRYRKQMAVKKYLAAVLGK-NH2 [P6-29]
IC50 [2, 11]: > 500 nM | IC50 [4, 9]: 1250 nM | IC50 [4, 10]: 350 to 2150 nM

vasoactive intestinal peptide [VIP]
agonist response (cAMP) (human PAC1hop (hPAC1)): highly specific for activation by PACAP, compared to the related peptide VIP | relative potency of PACAP and VIP (HEK293_CBS cells): the potency of PACAP was similar to VIP | response relative to HEK293_CBS_hPAC1 level (HEK293_CBS cells; IBMX pretreated, luminescence): less than 5% | agonist response / relative agonist potency [7]: VIP is a less potent agonist | potency relative to P27 and P38 (times less potent) [7]: about 100 times | EC80 (approximate) ([7]; Figure 5A): ~ 20 nM | EC80 ([7]; mean ± SEM, n = 3): 20 ± 6.2 nM | Hill Slope ([7]; mean ± SEM, n = 3): 1.78 ± 0.35

FTDSYSRYRKQMAVKKYLAAVLGKR-NH2 [P6-30]
IC50 [2, 11]: 84 ± 26 nM | IC50 [4, 9]: 175 nM | IC50 [4, 10]: 52 to 297 nM

pituitary adenylate cyclase-activating polypeptide (PACAP) 1-38 (HSDGIFTDSYSRYRKQMAVKKYLAAVLGKRYKQRVKNK-NH2) [P38, endogenous PAC1 agonist]
activation of endogenous PAC1 (PAC1 [8]): can be activated by P38 | agonist response (cAMP) (human PAC1hop (hPAC1)): highly responsive to P38 and P27 with similar potency and efficacy

HSDAVFTDNYTRLRKQMAVKKYLNSILN [vasoactive intestinal peptide]
EC80 of cAMP elevation (CBS assay) in SY5Y CBS cells [1]: 20 nM
